Experiments:
[1] = system: control sera (pooled serum of ten healthy LUMC hospital workers; commercial negative donor pooled serum from the Dutch bloodbank); type: binding, human; set-up: Binding of Control serum LUMC to linear peptides / Binding of Control serum Blood-bank to linear peptides / Binding of Control serum LUMC to looped peptides / Binding of Control Serum Blood-Bank to Looped peptides / Binding of Control serum LUMC to linear peptides of the protein M of SARS-CoV Urbani / Binding of Control serum Blood-bank to linear peptides of the protein M of SARS-CoV Urbani / Binding of Control serum LUMC to looped peptides of the protein M of SARS-CoV Urbani / Binding of Control Serum Blood-Bank to Looped peptides of the protein M of SARS-CoV Urbani: unit not given here
[2] = system: rabbit serum obtained by immunizing a rabbit with the SARS-CoV strain Frankfurt 1; type: binding; set-up: Binding of a rabbit serum to linear peptides / Binding of a rabbit serum to looped peptides / Rabbit serum linear peptides / Rabbit serum looped peptides / Binding of a rabbit serum to linear peptides of protein N of SARS-CoV Urbani (Rabbit serum linear peptides) / Binding of a rabbit serum to looped/cyclic peptides of protein N of SARS-CoV Urbani (Rabbit serum looped peptides): unit not given here
[3] = system: antibodies in sera from SARS patients (sera 1a, 1b, 2, 6, 37, 62, London, SARS-yellow, SARS-green); type: binding, human; set-up: Binding of serum 6 to linear peptides of protein X1 of SARS-CoV Urbani / Binding of serum 37 to linear peptides of protein X1 of SARS-CoV Urbani / Binding of serum 6 to looped/cyclic peptide (PEPSCAN-ELISA) / Binding of serum 37 to looped/cyclic peptide (PEPSCAN-ELISA) / Binding of serum 37 to looped/cyclic peptides of protein X1 of SARS-CoV Urbani / Binding of serum 6 to linear peptides of protein X2 / Binding of serum 37 to linear peptides of protein X2 / Binding of serum 37 to looped/cyclic peptides of protein X2 of SARS-CoV Urbani / Binding of serum 6 to linear peptides of protein M of SARS-CoV Urbani / Binding of serum 37 to linear peptides of protein M of SARS-CoV Urbani / Binding of serum 6 to looped/cyclic peptides of protein M of SARS-CoV Urbani / Binding of serum 37 to looped/cyclic peptides of protein M of SARS-CoV Urbani / Binding of serum 6 to linear peptides of protein X3 of SARS-CoV Urbani / Binding of serum 37 to linear peptides of protein X3 of SARS-CoV Urbani / Binding of serum 37 to looped/cyclic peptides of protein X3 of SARS-CoV Urbani / Binding of serum 6 to linear peptides of protein X4 of SARS-CoV Urbani / Binding of serum 37 to linear peptides of protein X4 of SARS-CoV Urbani / Binding of serum 37 to looped/cyclic peptides of protein X4 of SARS-CoV Urbani / Binding of serum 6 to linear peptides of protein X5 of SARS-CoV Urbani / Binding of serum 37 to linear peptides of protein X5 of SARS-CoV Urbani / Binding of serum 37 to looped/cyclic peptides of protein X5 of SARS-CoV Urbani / Binding of serum 6 to linear peptides of protein N of SARS-CoV Urbani / Binding of serum 37 to linear peptides of protein N of SARS-CoV Urbani / Binding of serum 6 to linear peptide (PEPSCAN-ELISA) / Binding of serum 1a to looped/cyclic peptides of protein N of SARS-CoV Urbani / Binding of serum 1b to looped/cyclic peptides of protein N of SARS-CoV Urbani / Binding of serum 2 to looped/cyclic peptides of protein N of SARS-CoV Urbani / Binding of serum 6 to looped/cyclic peptides of protein N of SARS-CoV Urbani / Binding of serum 37 to looped/cyclic peptides of protein N of SARS-CoV Urbani / Binding of serum 62 to looped/cyclic peptides of protein N of SARS-CoV Urbani / Binding of serum London to looped/cyclic peptides of protein N of SARS-CoV Urbani / Binding of serum SARS-green to looped/cyclic peptides of protein N of SARS-CoV Urbani: unit not given here

Question: What does the source list for KCKSKNPLLYDANYF?
Answer: Binding of Control Serum Blood-Bank to Looped peptides [1]: 0.7; Binding of Control serum Blood-bank to linear peptides [1]: 0.6; Binding of Control serum LUMC to linear peptides [1]: 0.5; Binding of Control serum LUMC to looped peptides [1]: 0.7; Binding of a rabbit serum to linear peptides [2]: 0.2; Binding of a rabbit serum to looped peptides [2]: 0.6; Binding of serum 1a to linear peptides of protein X1 of SARS-CoV Urbani [3]: 0.7; Binding of serum 1a to looped/cyclic peptide (PEPSCAN-ELISA) [3]: 0.7; Binding of serum 1b to linear peptides of protein X1 of SARS-CoV Urbani [3]: 0.4; Binding of serum 1b to looped/cyclic peptide (PEPSCAN-ELISA) [3]: 0.5; Binding of serum 2 to linear peptides of protein X1 of SARS-CoV Urbani [3]: 0.5; Binding of serum 2 to looped/cyclic peptide (PEPSCAN-ELISA) [3]: 0.4; Binding of serum 6 to linear peptides of protein X1 of SARS-CoV Urbani [3]: 0.5; Binding of serum 6 to looped/cyclic peptide (PEPSCAN-ELISA) [3]: 0.4; Binding of serum 37 to linear peptides of protein X1 of SARS-CoV Urbani [3]: 0.6; Binding of serum 37 to looped/cyclic peptide (PEPSCAN-ELISA) [3]: 0.8; Binding of serum 62 to linear peptides of protein X1 of SARS-CoV Urbani [3]: 0.5; Binding of serum 62 to looped/cyclic peptide (PEPSCAN-ELISA) [3]: 0.7; Binding of serum London to linear peptides of protein X1 of SARS-CoV Urbani [3]: 0.2; Binding of serum London to looped/cyclic peptide (PEPSCAN-ELISA) [3]: 0.3; Binding of serum SARS-green to linear peptides of protein X1 of SARS-CoV Urbani [3]: 0.2; Binding of serum SARS-green to looped/cyclic peptide (PEPSCAN-ELISA) [3]: 0.3; Binding of serum SARS-yellow to linear peptides of protein X1 of SARS-CoV Urbani [3]: 0.4; Binding of serum SARS-yellow to looped/cyclic peptide (PEPSCAN-ELISA) [3]: 0.5

Question: Which “Binding of Control Serum Blood-Bank to Looped peptides” value [1] does the source give for KDYVVVHGYFTEVYY here?
Answer: Its value is 0.5.

Question: And the “Binding of Control serum Blood-bank to linear peptides” value [1]?
Answer: Its value is 0.5.

Question: And the “Binding of Control serum LUMC to linear peptides” value [1]?
Answer: Its value is 0.6.

Question: What about the “Binding of Control serum LUMC to looped peptides” value [1] of the same sequence?
Answer: Its value is 0.5.

Question: What about the “Binding of a rabbit serum to linear peptides” value [2] of the same sequence?
Answer: The value was 0.1.

Question: What about the “Binding of a rabbit serum to looped peptides” value [2] of the same sequence?
Answer: The value was 0.5.

Question: And the “Binding of serum 1a to linear peptides of protein X1 of SARS-CoV Urbani” value [3]?
Answer: The value was 0.7.

Question: What about the “Binding of serum 1a to looped/cyclic peptides of protein X1 of SARS-CoV Urbani” value [3] of the same sequence?
Answer: The value was 0.5.

Question: And the “Binding of serum 1b to linear peptides of protein X1 of SARS-CoV Urbani” value [3]?
Answer: The value was 0.6.

Question: What about the “Binding of serum 1b to looped/cyclic peptides of protein X1 of SARS-CoV Urbani” value [3] of the same sequence?
Answer: Its value is 0.4.

Question: What about the “Binding of serum 2 to linear peptides of protein X1 of SARS-CoV Urbani” value [3] of the same sequence?
Answer: The value was 0.5.

Question: What about the “Binding of serum 2 to looped/cyclic peptides of protein X1 of SARS-CoV Urbani” value [3] of the same sequence?
Answer: Its value is 0.4.

Question: What about the “Binding of serum 6 to linear peptides of protein X1 of SARS-CoV Urbani” value [3] of the same sequence?
Answer: Its value is 0.4.

Question: What about the “Binding of serum 6 to looped/cyclic peptides of protein X1 of SARS-CoV Urbani” value [3] of the same sequence?
Answer: The value was 0.2.

Question: And the “Binding of serum 37 to linear peptides of protein X1 of SARS-CoV Urbani” value [3]?
Answer: The value was 0.6.

Question: What about the “Binding of serum 37 to looped/cyclic peptides of protein X1 of SARS-CoV Urbani” value [3] of the same sequence?
Answer: Its value is 0.6.

Question: And the “Binding of serum 62 to linear peptides of protein X1 of SARS-CoV Urbani” value [3]?
Answer: The value was 0.5.

Question: And the “Binding of serum 62 to looped/cyclic peptides of protein X1 of SARS-CoV Urbani” value [3]?
Answer: Its value is 0.5.

Question: What about the “Binding of serum London to linear peptides of protein X1 of SARS-CoV Urbani” value [3] of the same sequence?
Answer: The value was 0.2.

Question: And the “Binding of serum London to looped/cyclic peptides of protein X1 of SARS-CoV Urbani” value [3]?
Answer: Its value is 0.2.

Question: What about the “Binding of serum SARS-green to linear peptides of protein X1 of SARS-CoV Urbani” value [3] of the same sequence?
Answer: Its value is 0.2.

Question: What about the “Binding of serum SARS-green to looped/cyclic peptides of protein X1 of SARS-CoV Urbani” value [3] of the same sequence?
Answer: The value was 0.2.

Question: And the “Binding of serum SARS-yellow to linear peptides of protein X1 of SARS-CoV Urbani” value [3]?
Answer: The value was 0.3.

Question: What about the “Binding of serum SARS-yellow to looped/cyclic peptides of protein X1 of SARS-CoV Urbani” value [3] of the same sequence?
Answer: The value was 0.5.
